Reference: US9085555B2, “Complement pathway modulators and uses thereof” (priority 2011, dated 2015)

Target: Factor D (Homo sapiens (Human), UniProt P00746)
Experiment: biochemical
Format: biochemical
Conditions: read-out: IC50

Chain of Factor D (P00746 26-253): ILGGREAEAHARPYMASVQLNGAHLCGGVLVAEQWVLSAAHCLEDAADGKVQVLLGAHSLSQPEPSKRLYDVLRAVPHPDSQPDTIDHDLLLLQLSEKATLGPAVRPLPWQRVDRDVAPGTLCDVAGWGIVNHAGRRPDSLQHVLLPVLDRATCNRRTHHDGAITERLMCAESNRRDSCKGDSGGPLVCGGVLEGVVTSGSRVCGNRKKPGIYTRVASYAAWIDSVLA

| SMILES | IC50 [nM] |
| --- | --- |
| CC(=O)c1cn(CC(=O)N2C[C@@H](N)[C@H](F)[C@H]2C(=O)NCc2cccc(Cl)c2F)c2ccccc12 [Example 576, (2R,3S,4R)-1-[2-(3-Acetyl-indol-1-yl)-acetyl]-4-amino-3-fluoro-pyrrolidine-2-carboxylic acid 3-chloro-2-fluoro-benzylamide] | 400 |
| NC(=O)c1cn(CC(=O)N2C[C@H](F)C[C@H]2C(=O)NCc2cccc(Cl)c2F)c2ccc(O)cc12 [Example 577, 1-{2-[(2S,4R)-2-(3-Chloro-2-fluoro-benzylcarbamoyl)-4-fluoro-pyrrolidin-1-yl]-2-oxo-ethyl}-5-hydroxy-1H-indole-3-carboxylic acid amide] | 71 |
| CC(=O)c1cn(CC(=O)N2C[C@H](F)C[C@H]2C(=O)NCc2cccc(Cl)c2F)c2ccc(O)cc12 [Example 579, (2S,4R)-1-[2-(3-Acetyl-5-hydroxy-indol-1-yl)-acetyl]-4-fluoro-pyrrolidine-2-carboxylic acid 3-chloro-2-fluoro-benzylamide] | 39 |
| CC(=O)c1cn(CC(=O)N2C[C@](C)(F)C[C@H]2C(=O)NCc2cccc(Cl)c2F)c2ccc(O)cc12 [Example 580, (2S,4R)-1-[2-(3-Acetyl-5-hydroxy-indol-1-yl)-acetyl]-4-fluoro-4-methyl-pyrrolidine-2-carboxylic acid 3-chloro-2-fluoro-benzylamide] | 252 |
| CC(=O)c1cn(CC(=O)N2[C@@H]3C[C@@H]3C[C@H]2C(=O)NCc2cccc(Cl)c2F)c2ccc(O)cc12 [Example 581, (1R,3S,5R)-2-[2-(3-Acetyl-5-hydroxy-indol-1-yl)-acetyl]-2-aza-bicyclo[3.1.0]hexane-3-carboxylic acid 3-chloro-2-fluoro-benzylamide] | 60 |
| CC(=O)c1cn(CC(=O)N2C[C@](C)(F)C[C@H]2C(=O)NCc2cccc(Cl)c2F)c2cc(O)ccc12 [Example 582, (2S,4R)-1-[2-(3-Acetyl-6-hydroxy-indol-1-yl)-acetyl]-4-fluoro-4-methyl-pyrrolidine-2-carboxylic acid 3-chloro-2-fluoro-benzylamide] | 134 |
| CC(=O)c1cn(CC(=O)N2[C@@H]3C[C@@H]3C[C@H]2C(=O)NCc2cccc(Cl)c2F)c2cc(O)ccc12 [Example 584, (1R,3S,5R)-2-[2-(3-Acetyl-6-hydroxy-indol-1-yl)-acetyl]-2-aza-bicyclo[3.1.0]hexane-3-carboxylic acid 3-chloro-2-fluoro-benzylamide] | 38 |
| NC(=O)c1cn(CC(=O)N2C[C@H](F)C[C@H]2C(=O)NCc2cccc(Cl)c2F)c2cc(OCc3nn[nH]n3)ccc12 [Example 585, 1-{2-[(2S,4R)-2-(3-Chloro-2-fluoro-benzylcarbamoyl)-4-fluoro-pyrrolidin-1-yl]-2-oxo-ethyl}-6-(1H-tetrazol-5-ylmethoxy)-1H-indole-3-carboxylic acid amide] | 17 |
| CC(=O)c1cn(CC(=O)N2C[C@H](F)C[C@H]2C(=O)NCc2cccc(Cl)c2F)c2cc(OCc3nn[nH]n3)ccc12 [Example 586, (2S,4R)-1-{2-[3-Acetyl-6-(1H-tetrazol-5-ylmethoxy)-indol-1-yl]-acetyl}-4-fluoro-pyrrolidine-2-carboxylic acid 3-chloro-2-fluoro-benzylamide] | 132 |
| CC(=O)c1cn(CC(=O)N2[C@@H]3C[C@@H]3C[C@H]2C(=O)NCc2cccc(Cl)c2F)c2cc(OCc3nn[nH]n3)ccc12 [Example 587, (1R,3S,5R)-2-{2-[3-Acetyl-6-(1H-tetrazol-5-ylmethoxy)-indol-1-yl]-acetyl}-2-aza-bicyclo[3.1.0]hexane-3-carboxylic acid 3-chloro-2-fluoro-benzylamide] | 79 |
| COc1ccc2c(c1)c(C(C)=O)cn2CC(=O)N1C[C@H](F)C[C@H]1C(=O)NCc1cccc(Cl)c1F [Example 588, (2S,4R)-1-[2-(3-Acetyl-5-methoxy-indol-1-yl)-acetyl]-4-fluoro-pyrrolidine-2-carboxylic acid 3-chloro-2-fluoro-benzylamide] | 31 |
| CC(=O)c1cn(CC(=O)N2C[C@H](F)C[C@H]2C(=O)NCc2cccc(Cl)c2F)c2ccc(OCc3ccccn3)cc12 [Example 589, (2S,4R)-1-{2-[3-Acetyl-5-(pyridin-2-ylmethoxy)-indol-1-yl]-acetyl}-4-fluoro-pyrrolidine-2-carboxylic acid 3-chloro-2-fluoro-benzylamide] | 237 |
| CC(=O)c1cn(CC(=O)N2C[C@H](F)C[C@H]2C(=O)NCc2cccc(Cl)c2F)c2ccc(OCc3ncccn3)cc12 [Example 590, (2S,4R)-1-{2-[3-Acetyl-5-(pyrimidin-2-ylmethoxy)-indol-1-yl]-acetyl}-4-fluoro-pyrrolidine-2-carboxylic acid 3-chloro-2-fluoro-benzylamide] | 10 |
| COCCOc1ccc2c(C(N)=O)cn(CC(=O)N3C[C@H](F)C[C@H]3C(=O)NCc3cccc(Cl)c3F)c2c1 [Example 591, 1-{2-[(2S,4R)-2-(3-Chloro-2-fluoro-benzylcarbamoyl)-4-fluoro-pyrrolidin-1-yl]-2-oxo-ethyl}-6-(2-methoxy-ethoxy)-1H-indole-3-carboxylic acid amide] | 109 |
| COC(=O)COc1ccc2c(C(N)=O)cn(CC(=O)N3C[C@H](F)C[C@H]3C(=O)NCc3cccc(Cl)c3F)c2c1 [Example 592, (3-Carbamoyl-1-{2-[(2S,4R)-2-(3-chloro-2-fluoro-benzylcarbamoyl)-4-fluoro-pyrrolidin-1-yl]-2-oxo-ethyl}-1H-indol-6-yloxy)-acetic acid methyl ester] | 115 |
| NC(=O)c1cn(CC(=O)N2C[C@H](F)C[C@H]2C(=O)NCc2cccc(Cl)c2F)c2cc(OCC(=O)O)ccc12 [Example 593, (3-Carbamoyl-1-{2-[(2S,4R)-2-(3-chloro-2-fluoro-benzylcarbamoyl)-4-fluoro-pyrrolidin-1-yl]-2-oxo-ethyl}-1H-indol-6-yloxy)-acetic acid] | 56 |
| NC(=O)c1cn(CC(=O)N2C[C@H](F)C[C@H]2C(=O)NCc2cccc(Cl)c2F)c2cc(OCCO)ccc12 [Example 594, 1-{2-[(2S,4R)-2-(3-Chloro-2-fluoro-benzylcarbamoyl)-4-fluoro-pyrrolidin-1-yl]-2-oxo-ethyl}-6-(2-hydroxy-ethoxy)-1H-indole-3-carboxylic acid amide] | 85 |
| CC(=O)c1cn(CC(=O)N2C[C@H](F)C[C@H]2C(=O)NCc2cccc(Cl)c2F)c2cc(CC(=O)O)ccc12 [Example 595, (3-Acetyl-1-{2-[(2S,4R)-2-(3-chloro-2-fluoro-benzylcarbamoyl)-4-fluoro-pyrrolidin-1-yl]-2-oxo-ethyl}-1H-indol-6-yl)-acetic acid] | 41 |
| CC(=O)c1cn(CC(=O)N2[C@@H]3C[C@@H]3C[C@H]2C(=O)NCc2cccc(Cl)c2F)c2cc(CC(=O)O)ccc12 [Example 596, (3-Acetyl-1-{2-[(1R,3S,5R)-3-(3-chloro-2-fluoro-benzylcarbamoyl)-2-aza-bicyclo[3.1.0]hex-2-yl]-2-oxo-ethyl}-1H-indol-6-yl)-acetic acid] | 95 |
| CC(=O)c1cn(CC(=O)N2C[C@H](F)C[C@H]2C(=O)NCc2cccc(Cl)c2F)c2cc(C(=O)O)ccc12 [Example 597, 3-Acetyl-1-{2-[(2S,4R)-2-(3-chloro-2-fluoro-benzylcarbamoyl)-4-fluoro-pyrrolidin-1-yl]-2-oxo-ethyl}-1H-indole-6-carboxylic acid] | 14 |
| CC(=O)c1cn(CC(=O)N2[C@@H]3C[C@@H]3C[C@H]2C(=O)NCc2cccc(Cl)c2F)c2cc(C(=O)O)ccc12 [Example 598, 3-Acetyl-1-{2-[(1R,3S,5R)-3-(3-chloro-2-fluoro-benzylcarbamoyl)-2-aza-bicyclo[3.1.0]hex-2-yl]-2-oxo-ethyl}-1H-indole-6-carboxylic acid] | 14 |
| CC(=O)c1cn(CC(=O)N2C[C@](C)(F)C[C@H]2C(=O)NCc2cccc(Cl)c2F)c2cc(C(=O)O)ccc12 [Example 599, 3-Acetyl-1-{2-[(2S,4R)-2-(3-chloro-2-fluoro-benzylcarbamoyl)-4-fluoro-4-methyl-pyrrolidin-1-yl]-2-oxo-ethyl}-1H-indole-6-carboxylic acid] | 46 |
| CC(=O)c1cn(CC(=O)N2[C@@H]3C[C@@H]3C[C@H]2C(=O)NCc2cccc(Cl)c2F)c2c(C(=O)O)cccc12 [Example 601, 3-Acetyl-1-{2-[(1R,3S,5R)-3-(3-chloro-2-fluoro-benzylcarbamoyl)-2-aza-bicyclo[3.1.0]hex-2-yl]-2-oxo-ethyl}-1H-indole-7-carboxylic acid] | 110 |
| CC(=O)c1cn(CC(=O)N2C[C@H](F)C[C@H]2C(=O)NCc2cccc(Cl)c2F)c2cc(OCc3ccc(C(=O)O)cc3)ccc12 [Example 602, 4-(3-Acetyl-1-{2-[(2S,4R)-2-(3-chloro-2-fluoro-benzylcarbamoyl)-4-fluoro-pyrrolidin-1-yl]-2-oxo-ethyl}-1H-indol-6-yloxymethyl)-benzoic acid] | 227 |
| CC(=O)c1cn(CC(=O)N2[C@@H]3C[C@@H]3C[C@H]2C(=O)NCc2cccc(Cl)c2F)c2ccc(C(=O)O)cc12 [Example 603, 3-Acetyl-1-{2-[(1R,3S,5R)-3-(3-chloro-2-fluoro-benzylcarbamoyl)-2-aza-bicyclo[3.1.0]hex-2-yl]-2-oxo-ethyl}-1H-indole-5-carboxylic acid] | 1610 |
| CC(=O)c1cn(CC(=O)N2C[C@H](F)C[C@H]2C(=O)NCc2cccc(Cl)c2F)c2cc(CO)ccc12 [Example 604, (2S,4R)-1-[2-(3-Acetyl-6-hydroxymethyl-indol-1-yl)-acetyl]-4-fluoro-pyrrolidine-2-carboxylic acid 3-chloro-2-fluoro-benzylamide] | 37 |
| CC(=O)c1cn(CC(=O)N2C[C@H](F)C[C@H]2C(=O)NCc2cc(C(=O)O)cc(Cl)c2F)c2ccccc12 [Example 605, 3-[({(2S,4R)-1-[2-(3-Acetyl-indol-1-yl)-acetyl]-4-fluoro-pyrrolidine-2-carbonyl}-amino)-methyl]-5-chloro-4-fluoro-benzoic acid] | 54 |
| CC(=O)c1cn(CC(=O)N2[C@@H]3C[C@@H]3C[C@H]2C(=O)NCc2cc(C(=O)O)cc(Cl)c2F)c2ccccc12 [Example 606, 3-[({(1R,3S,5R)-2-[2-(3-Acetyl-indol-1-yl)-acetyl]-2-aza-bicyclo[3.1.0]hexane-3-carbonyl}-amino)-methyl]-5-chloro-4-fluoro-benzoic acid] | 14 |
